Reference: paper PMC10046037, “GABRG2 Variants Associated with Febrile Seizures” (Biomolecules, 2023)

Target: T1, α1β3γ2 GABAA receptor, γ2F464S variant (Homo sapiens, UniProt P14867+P18507+P28472, F464S)
T1 construct: expressed in transfected cells; host or cells: HEK293T
T1 sequence (P14867 28-456): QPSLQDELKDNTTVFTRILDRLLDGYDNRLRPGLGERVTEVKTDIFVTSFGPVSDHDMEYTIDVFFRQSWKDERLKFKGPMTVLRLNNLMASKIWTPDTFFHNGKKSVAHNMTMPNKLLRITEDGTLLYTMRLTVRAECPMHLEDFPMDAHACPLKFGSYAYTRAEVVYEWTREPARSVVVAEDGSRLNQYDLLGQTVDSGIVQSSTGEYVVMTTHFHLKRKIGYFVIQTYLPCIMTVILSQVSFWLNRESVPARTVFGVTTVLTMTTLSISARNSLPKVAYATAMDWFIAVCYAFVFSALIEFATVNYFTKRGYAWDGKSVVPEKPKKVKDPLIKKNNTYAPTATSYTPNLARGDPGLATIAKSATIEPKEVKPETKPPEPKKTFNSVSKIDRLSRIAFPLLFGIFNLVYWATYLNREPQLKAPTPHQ
T1 sequence (P28472 26-473 isoform P28472-2): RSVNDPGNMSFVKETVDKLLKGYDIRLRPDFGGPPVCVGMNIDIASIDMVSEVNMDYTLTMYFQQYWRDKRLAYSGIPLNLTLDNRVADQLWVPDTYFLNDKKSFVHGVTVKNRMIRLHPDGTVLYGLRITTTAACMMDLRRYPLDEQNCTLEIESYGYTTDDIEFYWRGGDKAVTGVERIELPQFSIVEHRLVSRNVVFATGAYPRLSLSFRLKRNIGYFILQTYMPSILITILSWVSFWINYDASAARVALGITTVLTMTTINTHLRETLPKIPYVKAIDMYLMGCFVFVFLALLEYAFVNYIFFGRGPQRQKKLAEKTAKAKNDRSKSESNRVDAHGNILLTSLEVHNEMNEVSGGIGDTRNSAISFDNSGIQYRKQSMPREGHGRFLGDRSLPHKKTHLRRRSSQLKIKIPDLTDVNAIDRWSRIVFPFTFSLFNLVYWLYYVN
T1 sequence (P18507 40-475 F464S): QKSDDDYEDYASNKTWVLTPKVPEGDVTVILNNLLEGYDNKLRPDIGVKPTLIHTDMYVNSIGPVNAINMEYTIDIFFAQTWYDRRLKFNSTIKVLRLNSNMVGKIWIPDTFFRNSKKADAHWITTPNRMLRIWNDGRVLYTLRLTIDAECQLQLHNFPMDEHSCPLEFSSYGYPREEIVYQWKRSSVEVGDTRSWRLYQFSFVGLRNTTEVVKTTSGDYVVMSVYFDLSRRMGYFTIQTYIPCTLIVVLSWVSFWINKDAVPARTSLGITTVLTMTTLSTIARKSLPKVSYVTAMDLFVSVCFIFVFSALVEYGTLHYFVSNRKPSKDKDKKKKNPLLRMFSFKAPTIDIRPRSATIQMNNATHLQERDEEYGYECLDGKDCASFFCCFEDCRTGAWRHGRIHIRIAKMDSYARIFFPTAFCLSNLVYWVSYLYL
Assay: Automated patch clamp of GABA-elicited currents (SyncroPatch 384PE), γ2F464S
Assay type: cell-based
Settings: mean
Protocol: The coding sequences of human α1 (GABRA1, NM_000806), β3 (GABRB3, NM_021912), and γ2 (GABRG2, NM_198904.2) GABAAR subunits were subcloned into the pcDNA3.1 expression vectors (Invitrogen, Waltham, MA, USA).
HEK293T cells (ATCC, CRL-11268) were cultured at 37 °C in a humidified 5% CO2 incubator and maintained in Dulbecco’s modified Eagle’s medium (Invitrogen) supplemented with 10% fetal bovine serum (Life Technologies, Carlsbad, CA, USA), and 100 IU/mL of penicillin/streptomycin (Life Technologies). For the expression experiments, 4 × 10^5 cells were transfected using polyethylenimine (PEI) reagent (40 kD, Polysciences, Warrington, PA, USA) at a DNA: to transfection reagent ratio of 1:2.5 and harvested 36 h after transfection. To express WT and variant α1β3γ2 receptors, a total of 3 µg of α1, β3, and γ2 (WT or mutant) subunit cDNAs were transfected at a ratio of 1:1:1 into 60 mm culture dishes. For the mock-transfected condition, an empty pcDNA3.1 vector was added for a final cDNA transfection amount of 3 μg. For the electrophysiology experiments, 2.5 × 10^5 cells were plated in 100 mm culture dishes and transfected after 24 h with 3 μg of cDNA of each α1, β3, γ2 (wild-type or mutant) subunit, using X-tremeGENE HP DNA transfection Reagent (Roche Diagnostics, Basel, Switzerland), following the manufacturer’s protocol. Recordings were obtained forty-eight hours after transfection.
Whole-cell patch clamp recordings were conducted according to the manufacturer’s standard procedure for the SyncroPatch 384 [31]. Whole-cell voltage-clamp recordings were performed at room temperature on HEK293T cells 48 h after transfection with GABAAR subunits, using the SyncroPatch 384PE (Nanion Technologies, Munich, Germany). Cells, at a concentration of 400,000 cells/mL, were harvested in suspension in external solution containing 140 mM of NaCl, 2 mM of CaCl2, 4 mM of KCl, 1 mM of MgCl2, 5 mM of glucose, and 10 mM of HEPES (pH 7.4 with NaOH, 298 mOsm). The cells were loaded in a multi-hole (4 holes per well) 384-well Nanion patch clamp (NPC) chip with a thick borosilicate glass bottom and an average resistance pore size of […]. Built-in electrophysiological protocols were used, and the data were digitized using PatchControl 384 (Nanion Technologies) application. Using PatchControl 384, electrophysiological parameters, such as seal resistance, capacitance, and series resistance, were determined for each well after the application of a test pulse, and subsequently monitored over time. […] The currents were normalized to the maximal response of each well, and the concentration–response curves were calculated from single-point additions. The EC50 values for each variant or wild-type receptor were calculated across multiple wells for each experimental condition.

Deactivation (1 mM GABA for 5 ms, HEK293T, -80 mV): 332.6 ms
IMAX (maximal GABA-evoked peak current) (1 mM GABA for 5 ms, HEK293T): 0.96 nA
IMAX variant/IMAX WT (1 mM GABA): 47.93%
Rise Time (10–90% rise time, 1 mM GABA for 5 ms, HEK293T): 29.22 ms
Compound: NCCCC(=O)O [GABA, γ-aminobutyric acid]
